Where a SMILES comes first, the peptide text is derived from it. Bridges are numbered along the chain shown (N, C = ends). [ ]: non-standard residue; d: D form. Phe(4-COOH) = N[C@@H](Cc1ccc(C(=O)O)cc1)C(=O)O; R8 = C=CCCCCCC[C@@](C)(N)C(=O)O; Cba = N[C@@H](CC1CCC1)C(=O)O; S5 = C=CCCC[C@](C)(N)C(=O)O; Nle = CCCC[C@H](N)C(=O)O
What was measured:
[1] = Circular dichroism (CD) analysis of alpha-helicity; type: physicochemical; conditions: for Molar Ellipticity 50% TFE (222 in 50% TFE): CD buffer with 50% TFE; for Molar Ellipticity 50% TFE (222 in 50% TFE) / Molar Ellipticity Benign (222 in 0% TFE): 222 nm, 4° C.; for Molar Ellipticity Benign (222 in 0% TFE): benign CD buffer pH 2, 0% TFE; for % Helix benign compared to 50% TFE parent (CD): benign buffer; for Molar Ellipticity TFE-Molar Ellipticity Benign: difference 50% TFE minus benign
Method: To assay the helicity of peptidomimetic macrocycles, the compounds are dissolved in an aqueous solution (e.g. 50 mM potassium phosphate solution at pH 7, or distilled H2O, to concentrations of 25-50 μM). Circular dichroism (CD) spectra are obtained on a spectropolarimeter (e.g., Jasco J-710) using standard measurement parameters (e.g. temperature, 20° C.; wavelength, 190-260 nm; step resolution, 0.5 nm; speed, 20 nm/sec; accumulations, 10; response, 1 sec; bandwidth, 1 nm; path length, 0.1 cm). […] A Peltier temperature controller was used to maintain temperature control of the optical cell. Results are expressed as mean molar ellipticity [0] […] Peptide concentrations were determined by amino acid analysis. Stock solutions of peptides were prepared in benign CD buffer (20 mM phosphoric acid, pH 2). The stocks were used to prepare peptide solutions of 0.05 mg/ml in either benign CD buffer or CD buffer with 50% trifluoroethanol (TFE) for analyses in a 10 mm pathlength cell. […] The average of six scans was reported.

MDM2 = MDM2 (Homo sapiens, UniProt Q00987); test: Competitive fluorescence polarization assay for MDM2; type: binding; conditions: competitive FP assay, MDM2; for IC50: read-out: IC50 (MDM2); for Ki: read-out: Ki (MDM2)
MDMX = target: T1, MDMX (Homo sapiens, UniProt O15151); test: Competitive fluorescence polarization assay for MDMX; type: binding; conditions: competitive FP assay; for IC50: read-out: IC50 (MDMX); for Ki: read-out: Ki (MDMX)
T1 sequence (O15151 1-125): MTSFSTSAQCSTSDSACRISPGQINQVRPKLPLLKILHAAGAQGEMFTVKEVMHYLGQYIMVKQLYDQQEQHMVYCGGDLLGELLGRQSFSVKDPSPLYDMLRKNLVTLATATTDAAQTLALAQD

SJSA-1 cells = test: Cell lysis by peptidomimetic macrocycles (LDH release); type: cell-based; conditions: 1 h at 37C
Caspase 3 = Caspase 3 detection assay in SJSA1 cells; type: cell-based; conditions: 48 h, Caspase 3 activation over DMSO-treated cells; for caspase 0.3 uM: 0.3 uM peptide; for caspase 3 uM: 3 uM peptide; for caspase 10 uM: 10 uM peptide; for caspase 30 uM: 30 uM peptide

Chain of MDM2 (Q00987 1-125): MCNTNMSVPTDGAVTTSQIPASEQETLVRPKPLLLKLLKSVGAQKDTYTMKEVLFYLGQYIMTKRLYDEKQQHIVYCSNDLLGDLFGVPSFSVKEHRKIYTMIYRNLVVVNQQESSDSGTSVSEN

## CC(=O)N[C@@H](CC(C)C)C(=O)N[C@H](C(=O)N[C@@H](Cc1ccccc1)C(=O)N[C@]1(C)CCCCCCC=CCCC[C@@](C)(C(=O)N[C@@H](Cc2c[nH]cn2)C(=O)N[C@@H](Cc2c[nH]cn2)C(=O)N[C@@H](CC(C)C)C(=O)N[C@H](C)C(N)=O)NC(=O)[C@H](CC(C)C)NC(=O)[C@H](CCC(N)=O)NC(=O)[C@H](C)NC(=O)[C@H](Cc2c[nH]c3ccccc23)NC(=O)[C@H](Cc2ccc(O)cc2)NC(=O)[C@H](C)NC1=O)[C@@H](C)O [compound 43] (Ac-LTF[R8]AYWAQL[S5]HHL[dA]-NH2; staple 4-11)
[1]
  % Helix 50% TFE compared to 50% TFE parent (CD): 116.4%
  Molar Ellipticity 50% TFE (222 in 50% TFE): −18247.4 deg cm2 dmol-1
  Molar Ellipticity Benign (222 in 0% TFE): −15334.5 deg cm2 dmol-1
  % Helix benign compared to 50% TFE parent (CD): 97.8%
  Molar Ellipticity TFE-Molar Ellipticity Benign: 2912.9 deg cm2 dmol-1
MDM2
  IC50: 10 to 100 nM
  Ki: < 10 nM
MDMX
  IC50: 10 to 100 nM
  Ki: 10 to 100 nM
SJSA-1 cells
  6.25 uM % Lysed cells (1 h LDH): 0%
  25 uM % Lysed cells (1 h LDH): −1%
  50 uM % Lysed cells (1 h LDH): −1%

## CC(=O)N[C@@H](CCC(=O)O)C(=O)N[C@H](C(=O)N[C@@H](Cc1ccccc1)C(=O)N[C@]1(C)CCCCCCC=CCCC[C@@](C)(C(=O)N[C@@H](CO)C(=O)N[C@@H](C)C(=O)N[C@@H](C)C(N)=O)NC(=O)[C@H](CC(C)C)NC(=O)[C@H](CCC(N)=O)NC(=O)[C@H](C)NC(=O)[C@H](Cc2c[nH]c3ccccc23)NC(=O)[C@H](Cc2ccc(O)cc2)NC(=O)[C@H](C(C)C)NC1=O)[C@@H](C)O [compound 125] (Ac-ETF[R8]VYWAQL[S5]SAA-NH2; staple 4-11)
MDM2
  IC50: < 10 nM
  Ki: < 10 nM
MDMX
  IC50: 100 to 1000 nM
  Ki: 10 to 100 nM
Caspase 3
  caspase 0.3 uM: 1
  caspase 3 uM: 3
  caspase 10 uM: 9
  caspase 30 uM: 29
SJSA-1 cells
  6.25 uM % Lysed cells (1 h LDH): 0%
  25 uM % Lysed cells (1 h LDH): 0%
  50 uM % Lysed cells (1 h LDH): 2%

## CC(=O)N[C@@H](CCC(=O)O)C(=O)N[C@H](C(=O)N[C@@H](Cc1ccccc1)C(=O)N[C@]1(C)CCCCCCC=CCCC[C@@](C)(C(=O)N[C@@H](CO)C(=O)N[C@H](C(=O)N[C@@H](CO)C(N)=O)C(C)C)NC(=O)[C@H](CC(C)C)NC(=O)[C@H](CCC(N)=O)NC(=O)[C@H](C)NC(=O)[C@H](Cc2c[nH]c3ccccc23)NC(=O)[C@H](Cc2ccc(O)cc2)NC(=O)[C@H](C(C)C)NC1=O)[C@@H](C)O [compound 130] (Ac-ETF[R8]VYWAQL[S5]SVS-NH2; staple 4-11)
MDM2
  IC50: < 10 nM
  Ki: < 10 nM
MDMX
  IC50: 100 to 1000 nM
  Ki: 10 to 100 nM
Caspase 3
  caspase 0.3 uM: 1
  caspase 3 uM: 2
  caspase 10 uM: 6
  caspase 30 uM: 17
SJSA-1 cells
  6.25 uM % Lysed cells (1 h LDH): 1%
  25 uM % Lysed cells (1 h LDH): 0%
  50 uM % Lysed cells (1 h LDH): −1%

## CC(=O)N[C@@H](CC(C)C)C(=O)N[C@H](C(=O)N[C@@H](Cc1ccccc1)C(=O)N[C@]1(C)CCCCCCC=CCCC[C@@](C)(C(=O)N[C@@H](CO)C(=O)N[C@H](C(=O)N[C@@H](CO)C(N)=O)C(C)C)NC(=O)[C@H](CC(C)C)NC(=O)[C@H](CCC(N)=O)NC(=O)[C@H](C)NC(=O)[C@H](Cc2c[nH]c3ccccc23)NC(=O)[C@H](Cc2ccc(O)cc2)NC(=O)[C@H](C)NC1=O)[C@@H](C)O [compound 121] (Ac-LTF[R8]AYWAQL[S5]SVS-NH2; staple 4-11)
MDM2
  IC50: < 10 nM
  Ki: < 10 nM
MDMX
  IC50: 100 to 1000 nM
  Ki: 10 to 100 nM
Caspase 3
  caspase 0.3 uM: 1
  caspase 3 uM: 5
  caspase 10 uM: 19
  caspase 30 uM: 30
SJSA-1 cells
  6.25 uM % Lysed cells (1 h LDH): 1%
  25 uM % Lysed cells (1 h LDH): 1%
  50 uM % Lysed cells (1 h LDH): 7%

## CC(=O)N[C@@H](CC(C)C)C(=O)N[C@H](C(=O)N[C@@H](Cc1ccccc1)C(=O)N[C@]1(C)CCCCCCC=CCCC[C@@](C)(C(=O)N[C@@H](CO)C(=O)N[C@H](C(=O)N[C@@H](C)C(N)=O)C(C)C)NC(=O)[C@H](CC(C)C)NC(=O)[C@H](CCC(N)=O)NC(=O)[C@H](C)NC(=O)[C@H](Cc2c[nH]c3ccccc23)NC(=O)[C@H](Cc2ccc(O)cc2)NC(=O)[C@H](C(C)C)NC1=O)[C@@H](C)O (single isomer, unassigned) [compound 139]
MDM2
  IC50: < 10 nM
  Ki: < 10 nM
MDMX
  IC50: 100 to 1000 nM
  Ki: 10 to 100 nM
Caspase 3
  caspase 0.3 uM: 1
  caspase 3 uM: 2
  caspase 10 uM: 9
  caspase 30 uM: 18
SJSA-1 cells
  6.25 uM % Lysed cells (1 h LDH): −2%
  25 uM % Lysed cells (1 h LDH): −1%
  50 uM % Lysed cells (1 h LDH): −1%

## CC[C@H](C)[C@H](NC(C)=O)C(=O)N[C@H](C(=O)N[C@@H](Cc1ccccc1)C(=O)N[C@]1(C)CCCCCCC=CCCC[C@@](C)(C(=O)N[C@@H](C)C(=O)N[C@@H](C)C(=O)N[C@H](C(=O)N[C@H](C)C(N)=O)[C@@H](C)CC)NC(=O)[C@H](CC(C)C)NC(=O)[C@H](CCC(N)=O)NC(=O)[C@H](C(C)C)NC(=O)[C@H](Cc2c[nH]c3ccccc23)NC(=O)[C@H](Cc2ccc(O)cc2)NC(=O)[C@H](Cc2ccccc2)NC1=O)[C@@H](C)O [compound 177] (Ac-ITF[R8]FYWVQL[S5]AAI[dA]-NH2; staple 4-11)
MDM2
  IC50: 10 to 100 nM
  Ki: < 10 nM
MDMX
  IC50: 100 to 1000 nM
  Ki: 10 to 100 nM
Caspase 3
  caspase 0.3 uM: 1
  caspase 3 uM: 1
  caspase 10 uM: 8
  caspase 30 uM: 20
SJSA-1 cells
  6.25 uM % Lysed cells (1 h LDH): −1%
  25 uM % Lysed cells (1 h LDH): 0%
  50 uM % Lysed cells (1 h LDH): 1%

## CCCC[C@H](NC(=O)[C@H](CCC(N)=O)NC(=O)[C@H](CCC(N)=O)NC(=O)[C@]1(C)CCCC=CCCCCCC[C@@](C)(NC(=O)[C@H](Cc2ccccc2)NC(C)=O)C(=O)N[C@@H](C)C(=O)N[C@@H](Cc2ccc(O)cc2)C(=O)N[C@@H](Cc2c[nH]c3ccccc23)C(=O)N[C@@H]([C@@H](C)O)C(=O)N[C@@H](C)C(=O)N[C@@H](CC(C)C)C(=O)N1)C(=O)N[C@@H](C(N)=O)C(C)C [compound 41] (Ac-F[R8]AYWTAL[S5]QQ[Nle][dV]-NH2; staple 2-9)
[1]
  % Helix 50% TFE compared to 50% TFE parent (CD): 136%
  Molar Ellipticity 50% TFE (222 in 50% TFE): −21319.4 deg cm2 dmol-1
  Molar Ellipticity Benign (222 in 0% TFE): −909 deg cm2 dmol-1
  % Helix benign compared to 50% TFE parent (CD): 5.8%
  Molar Ellipticity TFE-Molar Ellipticity Benign: 20410.4 deg cm2 dmol-1
MDM2
  IC50: 100 to 1000 nM
  Ki: 10 to 100 nM
MDMX
  IC50: 10 to 100 nM
  Ki: 10 to 100 nM

## CC(=O)N[C@@H](CC(C)C)C(=O)N[C@H](C(=O)N[C@@H](Cc1ccccc1)C(=O)N[C@]1(C)CCCCCC/C=C/CCC[C@@](C)(C(=O)N[C@@H](C)C(=O)N[C@@H](C)C(=O)N[C@@H](C)C(=O)N[C@@H](C)C(=O)N[C@@H](C)C(=O)N[C@H](C)C(N)=O)NC(=O)[C@H](CC2CCC2)NC(=O)[C@H](CCC(N)=O)NC(=O)[C@H](C)NC(=O)[C@H](Cc2c[nH]c3ccccc23)NC(=O)[C@H](Cc2ccc(C(=O)O)cc2)NC(=O)[C@H](CCC(=O)O)NC1=O)[C@@H](C)O [compound 349] (Ac-LTF[R8]E[Phe(4-COOH)]WAQ[Cba][S5]AAAAA[dA]-NH2; staple (E) 4-11)
MDM2
  IC50: < 10 nM
  Ki: < 10 nM
MDMX
  IC50: 10 to 100 nM
  Ki: < 10 nM
Caspase 3
  caspase 0.3 uM: 1
  caspase 3 uM: 11
  caspase 10 uM: 16
  caspase 30 uM: 24
Caspase 3; 1 uM peptide
  caspase 1 uM: 8
SJSA-1 cells
  6.25 uM % Lysed cells (1 h LDH): 0%
  25 uM % Lysed cells (1 h LDH): 0%
  50 uM % Lysed cells (1 h LDH): 0%

Reference: patent US8927500B2, “Peptidomimetic macrocycles” (Aileron Therapeutics, Inc., priority 2012, dated 2015)
